Test results as given in US20200023038A1, “METHOD OF TREATING NEOPLASIAS” (PARANTA BIOSCIENCES LIMITED, priority 2015, published 2020).
Entries after “also recorded” stand apart in the source; their conditions may differ.

How the values were obtained:
[1] = test system: A549 lung adenocarcinoma cells; assay: Sensitization of cells to platinum/alkylating agent with TGFBR1 and ACVR1B inhibitor; type: cell-based, human
Procedure: 10,000 cells per well were plated in to a 96 well plate. […] Plates are left to incubate for 3 days with an Alamar Blue reading performed at end point.
(§1) 5000 cells per well were plated in quadruplicates in RPMI with 1% heat-inactivated NCS (HiNCS) and Glutamax and allowed to adhere overnight. Media was then removed and either vehicle or 5 μM SB-505124 was added and incubated for 24 hours. Media was then removed and replaced with media containing increasing concentrations of carboplatin with either vehicle or 5 μM SB-505124. After 3 days of incubation Alamar Blue was added and plates were incubated for 2.5 hours before being read using Fluostar Optima Plate Reader.

NCI-H358 = assay: Sensitization of cells to platinum with TGFBR1 and ACVR1B inhibitor; type: cell-based, human; conditions: NCI-H358, 5 μM SB-505124 pre-treatment 24 hours, then carboplatin 3 days
Procedure: as §1

TAK1 = assay: Western blot of phospho-TAK1; type: cell-based, human
Procedure: Cell lysates were prepared using RIPA buffer with the addition of Halt Protease and Phosphatase Inhibitor Cocktails. Gel electrophoresis and transfer was performed using the BioRad MiniProtean System according to manufacturer's instructions. Phospho-TAK1 was detected using the combination of Rabbit anti-Phospho-TAK1 and anti-Rabbit IgG, HRP linked primary and secondary antibodies respectively.

[2] = test system: A549 lung adenocarcinoma cell line; assay: Innate platinum responsiveness, Alamar Blue viability over carboplatin concentrations; type: cell-based, human; conditions: chemonaive A549, 3 days
Procedure: The A549 lung adenocarcinoma cell line was originally derived from a smoker prior to treatment with chemotherapy. This chemonaive cell line carrying a common KRAS mutation was chosen as the primary cell line for modelling innate platinum responsiveness. Platinum responsiveness of A549 lung adenocarcinoma cell line was assessed against a wide range of carboplatin concentrations. […] 10,000 cells per well were plated in to a 96 well plate. […] Plates are left to incubate for 3 days with an Alamar Blue reading performed at end point. Curves of cell death in response to the respective alkylating agent were generated by graphing fluorescence (as a measure of cell viability) vs the alkylating agent concentration.

LX22CL cells = assay: as above; type: cell-based, human; conditions: chemonaive SCLC line LX22CL, 3 days
[3] = test system: A549 lung adenocarcinoma cells; assay: DNA damage response, γH2AX confocal immunofluorescence; type: cell-based, human; conditions: 24 hr carboplatin, increasing concentrations
Procedure: DNA damage induced by platinum was visualised by confocal immunofluorescence microscopy. A549 lung adenocarcinoma cells were treated with appropriate primary and secondary antibodies to visualise γH2AX and the DNA counterstain DAPI following 24 hr treatment with increasing concentrations of carboplatin.

A549 flank xenografts = assay: In vivo modelling of platinum resistance, xenograft; design: species or system athymic nude mice; conditions: carboplatin 60 mg/kg day 0 or 2 μg FST day −1, +1, +3, +5, intraperitoneally
Procedure: Follistatin (FST) is a molecule that is known for its role in regulating the activities of TGFβ superfamily members, including activin and GDF11, both of which were identified as important players in chemoresistance of non-small cell lung carcinoma (NSCLC) cells (see Example 2). Therefore, the effects of FST on inducing sensitization of NSCLC cells to platinum therapy were assessed in an in vivo xenograft model. Athymic nude mice bearing A549 flank xenografts were treated with combinations of vehicle control, 60 mg/kg carboplatin on day 0, and/or 2 μg FST on day -1, +1, +3 and +5. Five mice were randomized in to each of the treatment groups and treatments started when the tumour size was 200 mm^3. Tumour volumes were measured daily and the animals were culled when the tumour size reached over 500 mm^3. Athymic nude mice bearing A549 flank xenografts were treated with combinations of vehicle control, 60 mg/kg carboplatin on day 0, and/or 2 μg FST on day -1, +1, +3 and +5 administered intraperitoneally. Recombinant human Follistatin 288 (FST) was used in all experiments. FST was provided by […] Biosciences Ltd.

[4] = background statement; cited from earlier work

## Cc1cccc(-c2[nH]c(C(C)(C)C)nc2-c2ccc3c(c2)OCO3)n1 [SB-505124]
[1]; A549, 5 μM SB-505124 pre-treatment 24 hours, then carboplatin 3 days
  sensitization to platinum (carboplatin): induced sensitization to platinum; also recorded: sensitized
[1]; A549, SB-505124 pre-treatment then busulfan range
  sensitization to busulfan: showed sensitization
[1]; A549, SB-505124 pre-treatment then cisplatin range
  sensitization to cisplatin: showed sensitization
NCI-H358
  sensitization to platinum (carboplatin): showed sensitization to platinum; also recorded: sensitized
TAK1; A549 and NCI-H358 cells, SB-505124 pre-treatment then carboplatin
  activation of TAK1 (phosphorylated TAK1 level): inhibited the activation of TAK1

## N.N.O=C([O-])C1(C(=O)[O-])CCC1.[Pt+2] [carboplatin]
[2]
  platinum responsiveness (survival against carboplatin concentration): exhibits an active resistance mechanism
LX22CL cells
  platinum responsiveness (survival against carboplatin concentration): shows sensitivity to carboplatin
[3]
  DNA damage (γH2AX): effect DNA damage, at much lower concentrations than is required to induce cell death
TAK1; cells treated with carboplatin
  phosphorylated TAK1 (activated form) levels: upregulated
A549 flank xenografts
  tumour growth, agent alone: did not affect tumour growth

## N.N.[Cl][Pt][Cl] [trans-DDP, trans-diamminedichloroplatinum (II)]
[4]
  activity against tumours: ineffective against tumours
